The text below walks through data of ChEMBL document CHEMBL5241116, “Isolation of Fluorescent Benzoxazines with Neuroprotective Activity from the Olive Weevil Pimelocerus perforatus” (J Nat Prod, 2022).

One series relates to SH-SY5Y. Briefly: Neuroprotective activity against H2O2-induced cell death in human SH-SY5Y cells pretreated with compound followed by H2O2 stimulation and measured after 24 hrs by WST-8 assay. In kind it is functional, cell-based. In general terms: Tetrazolium assays rely on reduction of a dye to a coloured formazan, in cell work by metabolically active cells.
A short description of series [1]: Neurotoxicity in human SH-SY5Y cells assessed as reduction in cell viability at 50 uM by WST-8 assay. It is filed as toxicity, cell-based.

Each structure is given as a SMILES string. The source made the active and inactive calls. The calls are words filed in the database; no cut-off is given here.

For the compound `Cc1c(C)c2c(c(C)c1O)CCC(C)(C(=O)O)O2` (configuration not stated), the result with SH-SY5Y was Active.
`O=C1C=C2Nc3cc(CCO)ccc3O[C@]23CCO[C@@]1(O)C3` (racemic): the Activity entry in series [1] is “Non-Toxic”. Besides, the outcome in the series with SH-SY5Y was Active.
Consider `O=C1C=C2Nc3ccc(CCO)cc3O[C@]23CCO[C@@]1(O)C3` (racemic), for which the Activity result in series [1] is “Non-Toxic”. Further, in the series with SH-SY5Y, the result was Active.
Take `OCCc1ccc(O)c(O)c1` [HYDROXYTYROSOL]: the Activity entry in series [1] is listed as “Non-Toxic”. Further, the outcome in the series on SH-SY5Y was Active.
